Data on 1 compound can be found in patent publication US11260023B2, “Topical compositions containing rofecoxib and methods of making and using the same” (BRIORI BIOTECH, LLC, priority 2020, dated 2022).

The nature of series [1]: Solubility of rofecoxib in various solvents by High Performance Liquid Chromatography. Format: physicochemical.
For series [2] the following is noted: in vivo; cited from earlier work.

As to `CS(=O)(=O)c1ccc(C2=C(c3ccccc3)C(=O)OC2)cc1` [Rofecoxib], the “Solubility of Rofecoxib” value in series [1] (in 1.25% Niacinamide (Aqueous), HPLC) was “No observable solubility”; in series [1] (in 10% Sodium Lauryl Sulfate (Aqueous), HPLC), “No observable solubility*”; in series [1] (in Dehydrated Alcohol, HPLC), “No observable solubility”; in series [1] (in Diethyl Sebacate, HPLC) it was “No observable solubility”; in series [1] (in Diethylene Glycol Monoethyl Ether, HPLC), 0.5-1.0 % w/w; in series [1] (in Diisoproovl Adipate, HPLC), “No observable solubility”. In addition, the “Solubility of Rofecoxib” value in series [1] (in Dimethyl Isosorbide, HPLC) was 2.5-3.5% w/w; in series [1] (in Ethyl Acetate, HPLC) it was <0.5% w/w; in series [1] (in Glycervl Monooleate, HPLC), “No observable solubility”; in series [1] (in Hydrochloric Acid (0.1 N), HPLC), “No observable solubility”; in series [1] (in Laureth-4, HPLC), “No observable solubility”; in series [1] (in Medium Chain Triglycerides, HPLC), “No observable solubility”. The “Solubility of Rofecoxib” value in series [1] (in N-Methvl-Pyrrolidone, HPLC) is on record as 4.4-5.4 % w/w; in series [1] (in Oleyl Alcohol, HPLC), “No observable solubility”; in series [1] (in PEG400, HPLC) it was 1.0-1.5 % w/w; in series [1] (in Polysorbate 80, HPLC), “No observable solubility”; in series [1] (in Propylene Carbonate, HPLC), 3.4-4.3 % w/w; in series [1] (in Propylene Glycol Diacetate, HPLC), <0.5 % w/w. Further, the “Solubility of Rofecoxib” value is “No observable solubility” in series [1] (in Sodium Hydroxide (0.1 N), HPLC); “No observable solubility” in series [1] (in Sorbitol Solution, HPLC); “No observable solubility” in series [1] (in Water pH 3, HPLC); “No observable solubility” in series [1] (in Water pH 5.5, HPLC); “No observable solubility” in series [1] (in Water pH 7.4, HPLC). Besides, the half-life in series [2] is 17 h.
